{
  "source": "ChEMBL document CHEMBL1127398",
  "about": "“(-)-11-Hydroxy-7'-isothiocyanato-1',1'-dimethylheptyl-delta 8-THC: a novel, high-affinity irreversible probe for the cannabinoid receptor in the brain” (J Med Chem, 1994)",
  "target": "Cannabinoid receptor (Rattus norvegicus, UniProt Q9QZN9+P20272)",
  "assay": "Tested for affinity of compound against cannabinoid receptor in rat forebrain membranes",
  "assay_type": "cell membranes, Membrane",
  "data": [
    {"smiles": "CC1=CC2c3c(O)cc(CCCCN=[N+]=[N-])cc3OC(C)(C)[C@H]2CC1", "note": "(some centres not stated)", "values": [
      {"measurement": "IC50", "value": 31, "unit": "nM"}
    ]},
    {"smiles": "CCc1cc(C(C)(C)CCCCCCN=C=S)cc2c1[C@@H]1CC(CO)=CC[C@H]1C(C)(C)O2", "values": [
      {"measurement": "IC50", "value": 1.6, "unit": "nM"}
    ]}
  ]
}
